Assay results from patent US9060987B2, “Methods for treating gout flares” (CymaBay Therapeutics, Inc., priority 2011, dated 2015).

Columns and labels:
[1] = Plasma concentration of (−)-halofenic acid during and after 30-day daily oral 400 mg arhalofenate; format: in vivo, human
Procedure: Methods used in relation to FIGS. 1-2 showing the pharmacokinetic profile of (−)-halofenic acid were as follows:
Plasma proteins in human plasma samples containing of (−)-halofenic acid, an internal standard (I.S.) and heparin as the anticoagulant were precipitated with acetonitrile. The samples were vortex mixed, centrifuged and an aliquot was analyzed by reversed phase high performance liquid chromatography using a Phenomenex Polar RP column maintained at 45° C. The mobile phase was nebulized using heated nitrogen in a Z-spray source/interface and the ionized compounds were detected using a tandem quadrupole mass spectrometer.
The plasma concentrations were rounded to the nearest one-tenth μg/mL before the calculations. Plasma samples with concentrations below the quantifiable limit of 1.0 μg/mL (BQL) were assigned values of zero.

gout patients = conditions: monotherapy at 40, 80, 120, 160 and 240 mg/day; cited from earlier work
[2] = test system: gout patients with hyperuricemia; assay: Randomized, double-blind, placebo-controlled 4-week monotherapy trial: sUA reduction and flare prevention; format: in vivo, human; conditions: for Flares considered moderate in severity by the investigator / Patients who reported flare during the Treatment Phase / Patients with flare that required medication (additional colchicine and/or NSAIDs) / Mean duration of Flares Requiring Treatment / Mean duration of Total flares / Mean sUA absolute change from baseline (Day 1) / Mean sUA percent change from baseline (Day 1): 4 weeks; for Mean sUA absolute change from baseline (Day 1) / Mean sUA percent change from baseline (Day 1): PP population; for Mean sUA percent change from baseline (Day 1): colchicine 0.6 mg background
Procedure: Study Design: This was a randomized, double-blind, placebo-controlled study of 400 mg and 600 mg arhalofenate administered daily for 4 weeks as monotherapy in patients with gout (per criteria of the American Rheumatism Association) with hyperuricemia. Patients using urate lowering therapy (ULT) must have been willing to discontinue treatment for the duration of the study. Patients with a recent history of an acute gout flare must have been symptom free for at least 1 week prior to screening. Upon successful completion of screening, patients entered into a minimum 3-week Run-in/Stabilization Phase. During this phase, patients on existing ULT were asked to temporarily discontinue their current therapy. Patients also started colchicine 0.6 mg once daily until the final study visit as prophylaxis to prevent potential gout flares. Patient who met final eligibility criteria were randomized (1:1:1) into the Treatment Phase to receive Placebo, arhalofenate 400 mg, or arhalofenate 600 mg. Each randomized patient took double-blind study medication daily for a period of four weeks beginning at Day 1 (Visit 3). Patients returned to the study site after 2 weeks at Visit 4 and then weekly at Visits 5 and 6 (Weeks 3 and 4). A Follow-up Visit (Visit 7) took place 2 weeks after the last dose of study medication. […] Patients with a recent history of an acute gout flare must have been symptom free for at least 1 week prior to both screening and randomization. Criteria for Evaluation: The primary efficacy analysis compared the percentage change in sUA from baseline to end of treatment between the treatment groups. In addition, gout flares were captured as special interest event and the incidence of gout flares (all flares and flares that required treatment), severity (as assessed either mild, moderate, or severe by the Principal Investigator), and duration (days) were compared between treatment groups.

murine 3T3-L1 adipocytes = assay: Suppression of uric-acid induced inflammation in vitro; format: cell-based; conditions: 50-150 μM, uric acid 5 or 15 mg/dL, 3 or 7 days
Procedure: Differentiated murine 3T3-L1 adipocytes are cultured in vitro in 24 well plates. To the culture medium (−)-halofenic acid is added at a final concentration of 50-150 μM prior to the addition of uric acid at 5 mg/dL or 15 mg/dL and the culture continued for 3 or 7 days. A parallel culture of cells is conducted in the presence of a vehicle such as dimethylsulfoxide (DMSO). At the end of the culture period media is removed, cells are isolated and messenger RNA prepared. The levels of secreted cytokines representing a panel of pro-inflammatory cytokines including but not restricted to monocyte chemoattractant protein-1 (MCP-1), tumor necrosis factor α (TNF-α), interleukin-1β, (IL-1β), interleukin-6 (IL-6) and interleukin-12 (Il-12) are determined in the media isolated from the cells using commercially available cytokine assay kits. The levels of gene expression for the mRNAs for a panel of pro-inflammatory cytokines including but not restricted to monocyte chemoattractant protein-1 (MCP-1), tumor necrosis factor α (TNF-α), interleukin-1β, (IL-1β), interleukin-6 (IL-6) and interleukin-12 (Il-12) are determined using real-time PCR. […] A similar study is also conducted in primary mouse macrophages and human umbilical vein endothelial cells.

healthy adult subjects = assay: Phase 1 multiple-dose study, serum uric acid after once daily oral dosing for 10 days; format: in vivo, human; conditions: all dose levels tested, FIG. 3 and Table 1
Procedure: Methods used in relation to FIG. 3 showing reduction in serum uric acid in subjects over time following once daily dosing with arhalofenate were as follows.
A single centre Phase 1, placebo- and positive-controlled, double-blind, randomized, dose escalation study was conducted to evaluate the multiple-dose pharmacokinetics (PK) of (−)-halofenate administered as a daily dose orally for 10 days, at the protocol-specified doses in healthy adult subjects. A total of 119 subjects completed study treatment according to protocol: 6 subjects received (−)-halofenate 100 mg/day for 10 days; 6 subjects received (−)-halofenate 200 mg/day for 10 days; 9 subjects received (−)-halofenate 400 mg/day for 10 days; 20 subjects received (−)-halofenate 600 mg/day for 10 days; 10 subjects received (−)-halofenate 600 mg Enteric Coated (EC)/day for 10 days; 9 subjects received (−)-halofenate 800 mg EC/day for 10 days; 10 subjects received (−)-halofenate 1000 mg EC/day for 10 days; 24 subjects received placebo treatment daily for 10 days; and 25 subjects received naproxen 500 mg b.i.d. monotherapy for 7 days. In this study, serum uric acid was measured at screening and on Days 1, 3, 5, 7, 9, 14 and 21.

[3] = test system: gout patients with hyperuricemia; assay: Open-label trial of arhalofenate in combination with febuxostat vs febuxostat alone: sUA reduction and flare prevention; format: in vivo, human
Procedure: Study Design: This was an open-label study to determine the sUA reduction and flare prevention with arhalofenate in combination with febuxostat and compared that with febuxostat alone in gout patients (per criteria of the American Rheumatism Association) with hyperuricemia when arhalofenate administered at 400 mg once daily orally for 2 weeks (Weeks 2-3) and then increased to 600 mg once daily orally for an additional 2 weeks (Weeks 4-5) in addition to 80 mg febuxostat once daily orally (Weeks 1-5). Patients with a recent history of an acute gout flare must have been symptom free for at least 1 week prior to screening.
All patients who met the screening criteria started a 2-week Run-in/Stabilization Phase at the same time as out-patient basis. During this phase, patients on existing urate lowering therapy were asked to discontinue their current therapy for the duration of the study. At the same time, patients also started colchicine 0.6 mg once daily as prophylaxis to prevent potential gout flares. Upon completing the Run-in/Stabilization Phase, patients were reassessed at Day −2 (Visit 2) to confirm the final eligibility for the Treatment Phase. The sUA at this visit must have been ≧8.0 mg/dL and ≦10 mg/dL to qualify for the Treatment Phase. In addition, all safety lab values must have met the eligibility criteria at this visit. Patients successfully meeting the eligibility criteria entered the study site for an in-clinic stay for a total of 37 consecutive days.
The Treatment Phase began on Day 1 and continued for 5 weeks until Day 35. The Treatment Phase consisted of 3 sequential drug dosing periods:
80 mg febuxostat orally once daily from Days 1 through 7 (Febuxostat Period).
80 mg febuxostat plus 400 mg arhalofenate orally once daily from Days 8 through 21 (Febuxostat plus 400 mg arhalofenate Period).
80 mg febuxostat plus 600 mg arhalofenate orally once daily from Days 22 through 35 (Febuxostat plus 600 mg arhalofenate Period).
In addition, all patients continued to receive 0.6 mg colchicine daily for gout flare prophylaxis.
Efficacy of febuxostat plus arhalofenate combination treatment was assessed by the proportion of patients achieving a sUA<6 mg/dL, <5 mg/dL, <4 mg/dL, and <3 mg/dL at Day 22 and Day 36. In addition, absolute and percent changes in sUA at Day 22 and Day 36 from baseline (Day 1) were also evaluated. Gout flares were captured as special interest event in this study. The incidence of gout flares, severity (as assessed either mild, moderate, or severe by the Principal Investigator), and duration (days) were compared between treatment periods.

[4] = Day 8, after one week of daily 80 mg febuxostat

O=C(O)C(Oc1cccc(C(F)(F)F)c1)c1ccc(Cl)cc1 (single isomer, unassigned; (-)) [(−)-halofenic acid, (−)-4-chlorophenyl-(3-trifluoromethylphenoxy)acetic acid]
Half-life of (−)-halofenic acid in plasma ([1]; daily oral 400 mg arhalofenate for 30 days, FIGS. 1-2): a long half-life with sustained drug levels present for several days after the final dose | Intraday plasma concentration profile ([1]; daily oral 400 mg arhalofenate, Day 15 and Day 30, FIG. 2): a relatively constant intraday plasma concentration

O=c1[nH]cnc2c(CN3C[C@H](CO)[C@@H](O)C3)c[nH]c12 [Ulodesine, 7-(((3R,4R)-3-hydroxy-4-(hydroxymethyl)pyrrolidin-1-yl)methyl)-3H-pyrrolo[3,2-d]pyrimidin-4(5H)-one]
Serum uric acid in gout patients (gout patients): rapidly and significantly reduced serum uric acid

CC(=O)NCCOC(=O)[C@H](Oc1cccc(C(F)(F)F)c1)c1ccc(Cl)cc1 [arhalofenate, (−)-(R)-(4-chloro-phenyl)-(3-trifluoromethyl-phenoxy)-acetic acid 2-acetylamino-ethyl ester]
Flares considered moderate in severity by the investigator ([2]; 400 mg daily): 2 of 4 | Patients who reported flare during the Treatment Phase ([2]; 400 mg daily, FIG. 4): 19.0% | Patients with flare that required medication (additional colchicine and/or NSAIDs) ([2]; 400 mg daily, FIG. 4): 4.8% | Mean duration of Flares Requiring Treatment ([2]; 400 mg daily, FIG. 5): 2.0 days | Mean duration of Total flares ([2]; 400 mg daily, FIG. 5): 1.3 days | Mean sUA absolute change from baseline (Day 1) ([2]; 400 mg daily): -1.4 mg/dL | Mean sUA percent change from baseline (Day 1) ([2]; 400 mg daily): −15.4% | Flares considered moderate in severity by the investigator ([2]; 600 mg daily): 0 of 2 | Patients who reported flare during the Treatment Phase ([2]; 600 mg daily, FIG. 4): 4.3% | Patients with flare that required medication (additional colchicine and/or NSAIDs) ([2]; 600 mg daily, FIG. 4): 4.3% | Mean duration of Flares Requiring Treatment ([2]; 600 mg daily, FIG. 5): 1.0 days | Mean duration of Total flares ([2]; 600 mg daily, FIG. 5): 1.0 days | Mean sUA absolute change from baseline (Day 1) ([2]; 600 mg daily): -2.3 mg/dL | Mean sUA percent change from baseline (Day 1) ([2]; 600 mg daily): −23% | Incidence of any flares (Total flare) and flares requiring treatment compared to placebo ([2]; monotherapy, FIG. 4): dose dependently reduced the incidence of any flares (Total flare) and flares requiring treatment compared to placebo | Duration of all flares (any flares and flares requiring treatment) ([2]; monotherapy, FIG. 5): also reduced the duration of all flares | Uptake of uric acid into 3T3-L1 adipocytes (murine 3T3-L1 adipocytes): prevents the uptake of uric acid into 3T3-L1 adipocytes | Uric acid induced inflammatory response (expression and secretion of pro-inflammatory cytokines) (murine 3T3-L1 adipocytes): suppresses the uric acid induced inflammatory response | Reduction in serum uric acid over time (healthy adult subjects): gradual reduction in serum uric acid over a period of time at all dose levels tested, and in a dose dependent manner

Cc1nc(-c2ccc(OCC(C)C)c(C#N)c2)sc1C(=O)O [febuxostat, 2-(3-cyano-4-isobutoxyphenyl)-4-methyl-1,3-thiazole-5-carboxylic acid]
Patients who experienced gout flares ([3]; 1 week of febuxostat only period (80 mg), colchicine 0.6 mg background): 2 patients | Patients who reached sUA <4 mg/dL [3, 4]: 9% | Patients who reached sUA <5 mg/dL [3, 4]: 55% | Patients who reached sUA target of <6 mg/dL [3, 4]: 100% | Patients who reported flare, adjusted by duration of treatment ([3]; febuxostat only period, FIG. 6): 18.2 % patients/week | Mean duration of the gout flares ([3]; febuxostat only period, FIG. 7): 6.5 days
